Where a name gives a salt, the structure may show the parent alone.
Target: T1, human neurokinin-1-receptor (NK1R) (Homo sapiens, UniProt P25103)
T1 construct: expressed in transfected cells
Test: Substance P antagonism assay: 125I-substance P binding to human NK1R expressed in COS or CHO cells
Conditions: 125I-SP displacement, read-out: IC50 @ NK1R
Protocol: To express the cloned human neurokinin-1-receptor (NK1R) transiently in COS, the cDNA for the human NK1R was cloned into the expression vector pCDM9 which was derived from pCDM8 (INVITROGEN) by inserting the ampicillin resistance gene (nucleotide 1973 to 2964 from BLUESCRIPT SK+ (trademark, STRATAGENE, La Jolla, Calif., USA)) into the Sac II site. Transfection of 20 ug of the plasmid DNA into 10 million COS cells was achieved by electroporation in 800 μl of transfection buffer (135 mM NaCl, 1.2 mM CaCl2, 1.2 mM MgCl2, 2.4 mM K2 HPO4, 0.6 mM KH2 PO4, 10 mM glucose, 10 mM N-2-hydroxyethyl-piperazine-N'-2-ethane […] (HEPES) pH 7.4) at 260 V and 950 μF using the IBI GENEZAPPER (trademark IBI, New Haven, Conn., USA). The cells were incubated in 10% fetal calf serum, 2 mM glutamine, 100 U/ml penicillin-streptomycin, and 90% DMEM media (GIBCO, Grand Island, N.Y., USA) in 5% CO2 at 37° C. for three days before the binding assay.
To establish a stable cell line expressing cloned human […], the cDNA was subcloned into the vector pRcCMV (INVITROGEN). Transfection of 20 ug of the plasmid DNA into CHO cells was achieved by electroporation in 800 μl of transfection buffer supplemented with 0.625 mg/ml Herring sperm DNA at 300 V and 950 μF using the IBI GENEZAPPER (IBI). The transfected cells were incubated in CHO media [10% fetal calf serum, 100 U/ml penicillin-streptomycin, 2 mM glutamine, 1/500 hypoxanthine-thymidine (ATCC), 90% IMDM media (JRH BIOSCIENCES, Lenexa, Kans. USA), 0.7 mg/ml G418 (GIBCO)] in 5% CO2 at 37° C. until colonies were visible. Each colony was separated and propagated. The cell clone with the highest number of human NK1R was selected for subsequent applications such as drug screening.
The binding assay of human NK1R expressed in either COS or CHO cells is based on the use of ^125 I-substance P (^125 I-SP, from DU PONT, Boston, Mass.) as a radioactively labeled ligand which competes with unlabeled substance P or any other ligand for binding to the human NK1R. Monolayer cell cultures of COS or CHO were dissociated by the non-enzymatic solution (SPECIALTY MEDIA, Lavellette, N.J.) and resuspended in appropriate volume of the binding buffer (50 mM Tris pH 7.5, 5 mM MnCl2, 150 mM NaCl, 0.04 mg/ml bacitracin, 0.004 mg/ml leupeptin, 0.2 mg/ml BSA, 0.01 mM phosphoramidon) such that 200 μl of the cell suspension would give rise to about 10,000 cpm of specific ^125 I-SP binding (approximately 50,000 to 200,000 cells). In the binding assay, 200 μl of cells were added to a tube containing 20 μl of 1.5 to 2.5 nM of ^125 I-SP and 20 μl of unlabeled substance P or any other test compound. The tubes were incubated at 4° C. or at room temperature for 1 hour with gentle shaking. The bound radioactivity was separated from unbound radioactivity by GF/C filter (BRANDEL, Gaithersburg, Md.) which was pre-wetted with 0.1% polyethylenimine. The filter was washed with 3 ml of wash buffer (50 mM Tris pH 7.5, 5 mM MnCl2, 150 mM NaCl) three times and its radioactivity was determined by gamma counter.

T1 sequence (P25103 whole entry): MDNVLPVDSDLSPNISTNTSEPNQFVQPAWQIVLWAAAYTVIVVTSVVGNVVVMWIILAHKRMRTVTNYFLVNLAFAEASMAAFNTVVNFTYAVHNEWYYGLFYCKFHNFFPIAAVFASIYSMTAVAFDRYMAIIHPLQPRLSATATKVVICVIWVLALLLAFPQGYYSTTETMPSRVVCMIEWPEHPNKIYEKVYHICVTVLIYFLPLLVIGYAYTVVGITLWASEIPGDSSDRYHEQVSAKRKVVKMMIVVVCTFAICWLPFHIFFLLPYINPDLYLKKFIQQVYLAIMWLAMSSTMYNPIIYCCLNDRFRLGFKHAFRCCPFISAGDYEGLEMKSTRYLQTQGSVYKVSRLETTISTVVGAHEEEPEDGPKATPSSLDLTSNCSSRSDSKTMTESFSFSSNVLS

`OC(C=C1C2CCN(CC2)C1C(c1ccccc1)c1ccccc1)c1ccccc1` (single isomer, unassigned) [4 (ISOMER B), E-3-[Methylene(hydroxymethyl)phenyl]-2-benzhydryl quinuclidine] and `O=C(C=C1C2CCN(CC2)C1C(c1ccccc1)c1ccccc1)c1ccccc1` (stereo not drawn) [Example 8, E-3-[Methyleneketophenyl]-2-benzhydrylquinuclidine] are within 1.5-fold of each other in IC50: 200 nM for the first, 190 nM for the second.

First: OC(C=C1C2CCN(CC2)C1C(c1ccccc1)c1ccccc1)c1cc(C(F)(F)F)cc(C(F)(F)F)c1 (single isomer, unassigned) [9 (ISOMER A), E-3-[Methylene-2-(3,5-bistrifluoromethyl)hydroxymethyl]-2-benzhydrylquinuclidine]
Second: FC(C=C1C2CCN(CC2)C1C(c1ccccc1)c1ccccc1)c1cc(C(F)(F)F)cc(C(F)(F)F)c1 (single isomer, unassigned; isomer a) [Example 10, E-3-[Methylene-2-(3,5-bistrifluoromethyl)fluoromethyl]-2-benzhydrylquinuclidine (Isomer A) oxalate salt]
The IC50 of the first is 5.6-fold lower: 0.9 nM for the first, 5 nM for the second.

Compared with `OC(C=C1C2CCN(CC2)C1Cc1ccccc1)c1cc(C(F)(F)F)cc(C(F)(F)F)c1` (single isomer, unassigned) [15 (DIASTEREOMER A), E-3-[Methylene-(3,5-bistrifluoromethylphenyl)hydroxymethyl]-2-benzyl quinuclidine], `FC(C=C1C2CCN(CC2)C1C(c1ccccc1)c1ccccc1)c1cc(C(F)(F)F)cc(C(F)(F)F)c1` (single isomer, unassigned; isomer b) [Example 11, E-3-[Methylene-2-(3,5-bistrifluoromethyl)fluoromethyl]-2-benzhydrylquinuclidine (Isomer B)] is 7-fold lower in IC50: 63 nM for the first, 9 nM for the second. The second is the more potent here.

Compared with `OC(C=C1C2CCN(CC2)C1Cc1ccccc1)c1cc(C(F)(F)F)cc(C(F)(F)F)c1` (single isomer, unassigned) [15 (DIASTEREOMER B), E-3-[Methylene-(3,5-bistrifluoromethylphenyl)hydroxymethyl]-2-benzyl quinuclidine], `O=C(C=C1C2CCN(CC2)C1C(c1ccccc1)c1ccccc1)c1cc(C(F)(F)F)cc(C(F)(F)F)c1` (stereo not drawn) [Example 7, E-3-[Methylene(3,5-bistrifluoromethylphenyl)oxo]-2-benzhydryl quinuclidine] is higher in IC50: 6 nM for the first, greater than 300 nM for the second.

`FC(F)(F)c1cccc(CC=C2C3CCN(CC3)C2C(c2ccccc2)c2ccccc2)c1` (stereo not drawn) [Example 6, E-3-[Methylene(3-trifluoromethyl)benzyl]-2-benzhydryl quinuclidine] and `Cc1cccc(C)c1C(O)C=C1C2CCN(CC2)C1C(c1ccccc1)c1ccccc1` (stereo not drawn) [Example 14, E[3-Methylene(2,6-dimethylphenyl)hydroxymethyl]-2-benzhydryl quinuclidine] are within 1.5-fold of each other in IC50: 100 nM for the first, 90 nM for the second.

Work on `Cc1cc(C)cc(C(=O)C=C2C3CCN(CC3)C2C(c2ccccc2)c2ccccc2)c1` (stereo not drawn) [Example 12, E-3-[Methylene-2-keto(3,5-dimethyl)phenyl]-2-benzhydryl quinuclidine] yielded an IC50 of 140 nM.

Same assay, conditions: IC50 @ NK1R, 125I-SP displacement

In order of rising IC50:
1. Cc1cc(C)cc(C(O)C=C2C3CCN(CC3)C2C(c2ccccc2)c2ccccc2)c1 (stereo not drawn) [Example 13, E-[3-Methylene(3,5-dimethylphenyl)hydroxymethyl]-2-benzhydryl quinuclidine]  13 nM
2. OC(C=C1C2CCN(CC2)C1C(c1ccccc1)c1ccccc1)c1cccc(C(F)(F)F)c1 (single isomer, unassigned) [3 (ISOMER A), E-3-[Methylene(3-trifluoromethylphenyl)hydroxymethyl]-2-benzyhydryl quinuclidine]  30 nM
3. COc1ccccc1C(O)C=C1C2CCN(CC2)C1C(c1ccccc1)c1ccccc1 (single isomer, unassigned) [1 (ISOMER A)]  50 nM
4. OC(C=C1C2CCN(CC2)C1C(c1ccccc1)c1ccccc1)c1cccc(C(F)(F)F)c1 (single isomer, unassigned) [3 (ISOMER B), E-3-[Methylene(3-trifluoromethylphenyl)hydroxymethyl]-2-benzyhydryl quinuclidine]  110 nM
5. COc1ccccc1C(O)C=C1C2CCN(CC2)C1C(c1ccccc1)c1ccccc1 (single isomer, unassigned) [1 (ISOMER B)]  130 nM
6. C(Cc1ccccc1)=C1C2CCN(CC2)C1C(c1ccccc1)c1ccccc1 (stereo not drawn) [Example 5, E-3-[Methylenebenzyl]-2-benzhydryl quinuclidine]  170 nM
7. OC(C=C1C2CCN(CC2)C1C(c1ccccc1)c1ccccc1)c1ccc(F)cc1 (single isomer, unassigned) [2 (ISOMER B), E-[3-[Methylene(4-fluorophenyl)hydroxymethyl]-2-benzhydryl)quinuclidine]  197 nM
